Data published in ChEMBL document CHEMBL1201862, “PubChem BioAssay data set” (2004).
Activity calls are given as the source filed them.

How the values were obtained:
[1] = cells
[2] = HEp-2 cell cytotoxicity, dose response, cytotoxicity control for RSV inhibitor project, HTS (AID 2410); type: functional; conditions: human respiratory syncytial virus
[3] = A549 cell cytotoxicity, dose response, cytotoxicity control, plate reader, cherry-pick, antagonist series (AID 743412); type: functional, cell-based
[4] = biological target: Luciferin 4-monooxygenase (Photinus pyralis, UniProt P08659); test: firefly luciferase enzyme inhibitors, dose response, biochemical, luminescence (AID 1891)
Chain of Luciferin 4-monooxygenase (P08659 whole entry): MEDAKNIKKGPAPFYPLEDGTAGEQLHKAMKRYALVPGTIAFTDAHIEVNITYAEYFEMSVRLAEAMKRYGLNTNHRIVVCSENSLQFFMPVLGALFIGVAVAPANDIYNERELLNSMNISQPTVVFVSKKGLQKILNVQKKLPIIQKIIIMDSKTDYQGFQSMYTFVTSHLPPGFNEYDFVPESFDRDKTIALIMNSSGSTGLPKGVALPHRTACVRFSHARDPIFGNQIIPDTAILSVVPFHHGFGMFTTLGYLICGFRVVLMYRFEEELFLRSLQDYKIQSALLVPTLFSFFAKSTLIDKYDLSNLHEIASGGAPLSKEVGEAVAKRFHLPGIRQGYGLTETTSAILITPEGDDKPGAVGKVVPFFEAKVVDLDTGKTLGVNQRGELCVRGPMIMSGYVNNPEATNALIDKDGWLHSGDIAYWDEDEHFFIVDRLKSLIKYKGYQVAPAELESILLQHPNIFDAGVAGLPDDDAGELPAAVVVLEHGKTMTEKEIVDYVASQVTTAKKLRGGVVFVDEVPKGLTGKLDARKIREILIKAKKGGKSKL

[5] = LGR2 antagonists, dose response, cell-based, HEK293, CRE-luciferase reporter, cherry pick, set 2 (AID 743343); type: functional;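 further: transfected cells were stimulated with diluted bursicon conditioned medium after compound addition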
[6] = cytotoxicity toward DRD oncogenic fibroblasts, dose response, cell-based, non-viral oncogenic, luminescence (AID 1934); type: functional; conditions: Homo sapiens
[7] = HEK293 cell cytotoxicity, dose response, cytotoxicity control, plate reader, cherry-picked samples (AID 743446); type: functional, cell-based
[8] = test system: BJ; test: cells; type: functional, cell-based; conditions: Homo sapiens
[9] = test system: BJ; test: cytotoxicity toward BJ-TERT fibroblasts, dose response, cell-based, RAS-independent, luminescence (AID 1933); type: functional; conditions: Homo sapiens
[10] = Luminescence Cell-Based Dose Confirmation HTS to Identify Inhibitors of Platelet Dense Granule Release. [Related pubchem assays: 1663 (Primary HTS), 1678 (Summary of Project)]; type: functional
[11] = MC4R antagonists, dose response, counter-screen for LGR2 antagonist project, cell-based, plate reader, cherry pick (AID 743444); type: functional;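 further: transfected HEK 293 cells stimulated with alpha-MSH peptide; potency of inhibitors of the alpha-MSH evoked signal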
[12] = test system: BJ; test: cytotoxicity toward BJ-TERT-LT-ST fibroblasts, dose response, cell-based, RAS-independent, luminescence (AID 1935); type: functional; conditions: Homo sapiens;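 further: BJ fibroblasts immortalized with TERT plus LT and ST oncogenes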
[13] = HepG2 cell cytotoxicity, dose response, cytotoxicity control, plate reader, cherry-pick, antagonist series (AID 743416); type: functional, cell-based
[14] = biological target: T1, Epstein-Barr nuclear antigen 1 (Epstein-Barr virus (strain B95-8) (HHV-4) (Human herpesvirus 4), UniProt P03211); test: EBNA-1 inhibitors, dose response, biochemical, fluorescence polarization, 1536-well (AID 2381); set-up: species or system human gammaherpesvirus 4;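 further: fluorescence polarization of a Cy5 DNA probe bound by EBNA-1 protein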
T1 sequence (P03211 whole entry): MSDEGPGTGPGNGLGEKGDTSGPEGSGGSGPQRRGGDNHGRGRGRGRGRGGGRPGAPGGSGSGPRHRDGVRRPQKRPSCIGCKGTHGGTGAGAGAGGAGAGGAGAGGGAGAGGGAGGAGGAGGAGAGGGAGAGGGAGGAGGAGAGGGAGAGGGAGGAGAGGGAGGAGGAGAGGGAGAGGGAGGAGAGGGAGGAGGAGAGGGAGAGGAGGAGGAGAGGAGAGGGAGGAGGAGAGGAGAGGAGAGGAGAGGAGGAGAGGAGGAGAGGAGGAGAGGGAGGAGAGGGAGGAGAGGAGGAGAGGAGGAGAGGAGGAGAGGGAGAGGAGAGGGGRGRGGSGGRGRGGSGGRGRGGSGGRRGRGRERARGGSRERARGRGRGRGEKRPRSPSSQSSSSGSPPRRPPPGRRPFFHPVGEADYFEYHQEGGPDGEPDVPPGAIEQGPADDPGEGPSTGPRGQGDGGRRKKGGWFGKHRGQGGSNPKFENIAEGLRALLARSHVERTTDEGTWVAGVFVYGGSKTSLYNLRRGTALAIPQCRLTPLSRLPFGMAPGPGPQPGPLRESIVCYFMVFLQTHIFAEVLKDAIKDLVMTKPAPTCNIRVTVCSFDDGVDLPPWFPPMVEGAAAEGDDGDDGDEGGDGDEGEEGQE

[15] = biological target: T2, Lytic switch protein BZLF1 (Epstein-Barr virus (strain B95-8) (HHV-4) (Human herpesvirus 4), UniProt P03206); test: EBV ZTA inhibitors, dose response, counter-screen for EBNA-1 inhibitor project, biochemical, fluorescence polarization, Epstein-Barr virus, 1536-well (AID 2377); set-up: species or system human gammaherpesvirus 4;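 further: fluorescence polarization of Cy5-labelled ZRE DNA probe bound by purified Zta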
T2 sequence (P03206 whole entry): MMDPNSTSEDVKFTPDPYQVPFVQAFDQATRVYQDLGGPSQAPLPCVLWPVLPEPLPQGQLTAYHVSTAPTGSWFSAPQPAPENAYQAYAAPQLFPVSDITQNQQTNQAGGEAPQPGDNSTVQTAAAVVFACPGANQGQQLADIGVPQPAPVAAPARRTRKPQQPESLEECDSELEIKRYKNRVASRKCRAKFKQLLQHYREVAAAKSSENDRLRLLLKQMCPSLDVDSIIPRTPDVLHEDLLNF

[16] = THP-1 cell cytotoxicity, dose response, cytotoxicity control for Vif-APOBEC3G degradation inhibitor project, THP-1 cells (AID 1117359); type: functional; conditions: Human immunodeficiency virus 1, THP-1
[17] = biological target: T3, Mannose-6-phosphate isomerase (Homo sapiens, UniProt P34949); test: human PMI inhibitors, high substrate, primary screen, biochemical, fluorescence intensity, high mannose 6-phosphate (AID 1220)
T3 sequence (P34949 whole entry): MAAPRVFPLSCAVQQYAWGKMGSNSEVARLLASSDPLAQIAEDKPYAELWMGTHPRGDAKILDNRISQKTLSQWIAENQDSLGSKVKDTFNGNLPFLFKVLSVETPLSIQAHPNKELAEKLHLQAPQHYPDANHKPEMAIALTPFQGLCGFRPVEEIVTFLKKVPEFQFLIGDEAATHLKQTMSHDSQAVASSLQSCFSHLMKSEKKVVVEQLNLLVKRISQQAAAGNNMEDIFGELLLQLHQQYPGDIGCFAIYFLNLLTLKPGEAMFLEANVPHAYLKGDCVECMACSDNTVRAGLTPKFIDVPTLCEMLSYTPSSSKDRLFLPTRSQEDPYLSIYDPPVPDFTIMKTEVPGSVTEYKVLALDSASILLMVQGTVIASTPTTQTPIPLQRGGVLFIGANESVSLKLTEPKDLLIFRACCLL

[18] = biological target: T4, Estrogen receptor (Homo sapiens, UniProt P03372);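 further: potency for inhibiting coactivator peptide recruitment to the receptor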
T4 sequence (P03372 whole entry): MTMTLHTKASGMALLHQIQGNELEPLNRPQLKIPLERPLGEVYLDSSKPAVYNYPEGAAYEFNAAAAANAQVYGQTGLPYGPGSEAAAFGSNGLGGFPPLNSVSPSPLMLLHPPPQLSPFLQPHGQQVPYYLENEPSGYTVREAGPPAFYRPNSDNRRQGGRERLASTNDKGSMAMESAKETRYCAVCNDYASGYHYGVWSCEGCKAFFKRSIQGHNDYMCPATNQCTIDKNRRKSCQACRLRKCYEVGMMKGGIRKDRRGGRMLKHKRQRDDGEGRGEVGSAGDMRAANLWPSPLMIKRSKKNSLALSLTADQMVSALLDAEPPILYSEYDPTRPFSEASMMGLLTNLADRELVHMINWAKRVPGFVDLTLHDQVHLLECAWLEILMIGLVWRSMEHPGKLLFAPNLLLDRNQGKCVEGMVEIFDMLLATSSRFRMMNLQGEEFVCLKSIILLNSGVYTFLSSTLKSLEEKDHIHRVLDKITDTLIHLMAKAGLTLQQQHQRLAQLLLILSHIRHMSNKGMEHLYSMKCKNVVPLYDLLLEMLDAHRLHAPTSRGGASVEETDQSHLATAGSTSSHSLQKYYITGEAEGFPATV

[19] = P. falciparum late gametocyte killing, dose response, luminescence (AID 1117278); type: functional, cell-based;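 further: gametocytes exposed to compound for 24 hours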
[20] = Jurkat T cell cytotoxicity, dose response, cytotoxicity control for P. falciparum gametocyte viability project, luminescence (AID 1117277); type: functional, cell-based;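 further: potency reflects loss of cellular ATP meaning fewer viable cells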
[21] = biological target: T5, Carboxy-terminal domain RNA polymerase II polypeptide A small phosphatase 1 (Homo sapiens, UniProt Q9GZU7); test: inhibitors of CTDSP1, concentration-response testing, biochemical assay, absorbance-based, actives from ultra-high-throughput screening (AID 540297); type: functional
T5 sequence (Q9GZU7 whole entry): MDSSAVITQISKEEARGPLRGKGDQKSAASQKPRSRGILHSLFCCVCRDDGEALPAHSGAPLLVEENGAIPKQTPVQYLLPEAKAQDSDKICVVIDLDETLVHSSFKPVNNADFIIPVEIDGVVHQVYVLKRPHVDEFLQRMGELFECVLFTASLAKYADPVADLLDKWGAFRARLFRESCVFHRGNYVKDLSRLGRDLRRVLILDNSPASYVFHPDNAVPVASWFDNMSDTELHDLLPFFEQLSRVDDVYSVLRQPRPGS

[22] = biological target: Mitogen-activated protein kinase 10 (Homo sapiens, UniProt P53779); test: Dose response biochemical screening assay for inhibitors of c-Jun N-Terminal Kinase 3 (JNK3). [Related pubchem assays: 746 ]
Chain of Mitogen-activated protein kinase 10 (P53779 whole entry): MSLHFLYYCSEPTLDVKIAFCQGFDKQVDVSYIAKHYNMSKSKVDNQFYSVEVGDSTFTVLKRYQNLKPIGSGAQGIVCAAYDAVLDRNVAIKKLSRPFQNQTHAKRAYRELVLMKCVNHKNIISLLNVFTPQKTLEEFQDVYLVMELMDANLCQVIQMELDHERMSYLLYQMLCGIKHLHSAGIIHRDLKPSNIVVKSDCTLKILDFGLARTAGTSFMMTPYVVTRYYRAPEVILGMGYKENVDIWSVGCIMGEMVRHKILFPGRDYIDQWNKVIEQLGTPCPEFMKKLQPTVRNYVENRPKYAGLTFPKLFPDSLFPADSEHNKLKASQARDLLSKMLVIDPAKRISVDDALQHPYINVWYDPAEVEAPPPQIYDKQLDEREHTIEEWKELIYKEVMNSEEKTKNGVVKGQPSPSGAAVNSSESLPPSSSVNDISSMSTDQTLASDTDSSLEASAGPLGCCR

[23] = biological target: T6, Caspase-6 (Homo sapiens, UniProt P55212); test: human caspase-6 inhibitors, dose response, biochemical, VEID-R110 fluorescence, cherry-pick (AID 720632)
T6 sequence (P55212 whole entry): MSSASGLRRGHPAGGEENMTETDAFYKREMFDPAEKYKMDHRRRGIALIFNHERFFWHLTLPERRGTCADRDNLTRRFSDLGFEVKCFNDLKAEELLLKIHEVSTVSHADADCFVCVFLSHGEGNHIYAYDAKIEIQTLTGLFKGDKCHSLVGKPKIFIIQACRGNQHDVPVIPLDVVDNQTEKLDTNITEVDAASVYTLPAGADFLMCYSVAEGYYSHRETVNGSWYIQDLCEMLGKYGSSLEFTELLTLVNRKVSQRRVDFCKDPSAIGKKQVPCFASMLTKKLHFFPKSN

[24] = biological target: T7, Oxysterols receptor LXR-beta (Homo sapiens, UniProt P55055); type: functional, cell-based;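 further: Cell-based luminescence dose-response assay of agonist activity at LXR, run as a confirmatory counterscreen to a daf-12 agonist screen; HEK293 cells with Gal4-LXR fusion and GAL4-driven luciferase reporter; agonist potency from rising luciferase signal of a Gal4-LXR reporter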
T7 sequence (P55055 whole entry): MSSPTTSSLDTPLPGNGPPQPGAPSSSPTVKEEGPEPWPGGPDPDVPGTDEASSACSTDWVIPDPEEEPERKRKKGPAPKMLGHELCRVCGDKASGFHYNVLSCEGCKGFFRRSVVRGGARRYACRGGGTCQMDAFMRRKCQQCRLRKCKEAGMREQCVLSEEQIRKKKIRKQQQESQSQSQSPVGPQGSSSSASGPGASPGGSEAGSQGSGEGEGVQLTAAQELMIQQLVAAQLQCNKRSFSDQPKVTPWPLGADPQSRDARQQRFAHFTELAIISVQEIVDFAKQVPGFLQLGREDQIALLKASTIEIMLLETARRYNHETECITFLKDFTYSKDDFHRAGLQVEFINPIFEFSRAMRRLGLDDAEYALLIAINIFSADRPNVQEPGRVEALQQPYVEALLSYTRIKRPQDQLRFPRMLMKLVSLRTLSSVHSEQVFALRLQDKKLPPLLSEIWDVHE

[25] = cells; remark: listed apart in the source
[26] = biological target: T8, Polyadenylate-binding protein 1 (Homo sapiens, UniProt P11940); test: PABP1 MLLE–PAM2 binding inhibitor potency, dose response, biochemical, fluorescence polarization, FITC-PAM2 peptide (AID 602259); type: functional; conditions: read-out: IC50_Mean
T8 sequence (P11940 whole entry): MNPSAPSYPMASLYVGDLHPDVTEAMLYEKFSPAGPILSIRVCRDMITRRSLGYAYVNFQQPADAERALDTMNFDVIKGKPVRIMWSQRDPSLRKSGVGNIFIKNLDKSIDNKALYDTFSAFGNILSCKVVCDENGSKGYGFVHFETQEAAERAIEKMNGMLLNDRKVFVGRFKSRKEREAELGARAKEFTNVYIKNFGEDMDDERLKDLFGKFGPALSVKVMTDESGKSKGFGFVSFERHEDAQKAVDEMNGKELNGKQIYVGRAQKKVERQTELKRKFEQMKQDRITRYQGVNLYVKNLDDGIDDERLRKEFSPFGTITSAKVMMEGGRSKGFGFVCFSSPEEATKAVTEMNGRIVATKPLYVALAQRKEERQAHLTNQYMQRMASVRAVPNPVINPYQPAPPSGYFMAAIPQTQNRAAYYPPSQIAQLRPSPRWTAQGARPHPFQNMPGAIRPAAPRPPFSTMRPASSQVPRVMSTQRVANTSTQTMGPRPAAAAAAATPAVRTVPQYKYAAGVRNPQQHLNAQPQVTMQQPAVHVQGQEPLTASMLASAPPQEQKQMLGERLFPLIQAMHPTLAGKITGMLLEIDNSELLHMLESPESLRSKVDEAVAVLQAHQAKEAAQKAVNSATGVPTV

[27] = biological target: T8, Polyadenylate-binding protein 1; test: PABP1 MLLE–PAM2 interaction inhibitors, dose response, miRNA deadenylation inhibitor project, biochemical, fluorescence polarization, Cy5-PAM2 peptide, secondary (AID 602260); type: functional; conditions: read-out: IC50_Mean

COc1cc2c(cc1NC(=O)Nc1ccccc1)oc1ccccc12
IC50 [1]: 30.4 µM (active)
CC50 [2]: 13.2 µM (active)

COc1ccc(-c2ccc(SC)nn2)cc1
AC50 [3]: 14.4 µM (active)
EC50 [4]: 1.1 µM (active)
AC50 [5]: 5.07 µM (active)
EC50 [6]: 6.25 µM (active)
AC50 [7]: 8.72 µM (active)
EC50 [8]: 6.55 µM (active)
EC50 [9]: 6.75 µM (active)
EC50 [10]: 1.98 µM (active)
AC50 [11]: 6.62 µM (active)
EC50 [12]: 15.7 µM (active)
AC50 [13]: 8.69 µM (active)

CCOC(=O)[C@H]1[C@H]2COc3ccc(Cl)cc3[C@@H]2N2C(=O)c3ccc(Cl)cc3NC(=O)[C@@]12C
IC50 [14]: > 148 µM (not active)
IC50 [15]: > 111 µM (not active)

Cc1ccc(-n2c(SCC(=O)NCc3ccco3)nc3c4ccccc4nc-3c2O)cc1
CC50 [16]: > 40 µM (active)

O=[N+]([O-])c1c(NCCO)cc(N2CCC3(CC2)OCCO3)c2nonc12
IC50 [17]: > 50 µM (not active)

CC(=O)Nc1nc(C=C(Cl)Cl)cs1
IC50 [18]: > 50 µM (not active)

CN(C)c1ccc(S(=O)(=O)N2CCCCC2)cc1NC(=O)COc1ccccc1F
IC50 [19]: > 109 µM (inactive)
IC50 [20]: > 83.3 µM (inactive)

CN(C)c1cccc2c(C#N)ccc(N(C)C)c12
IC50 [17]: > 50 µM (not active)

CN(/N=C/c1cccnc1)c1cnn(-c2ccc(F)c(Cl)c2)c(=O)c1Cl
IC50 [21]: > 80 µM (inactive)
IC50 [18]: 17.9 µM (active)

Cc1cccc(Nc2nc(NCc3ccco3)nc(N3CCOCC3)n2)c1
CC50 [2]: 36.8 µM (active)
IC50 [19]: > 109 µM (inactive)
IC50 [20]: > 83.3 µM (inactive)

CCN(CC)S(=O)(=O)c1ccc2nc(COC(=O)c3n[nH]c4ccccc34)[nH]c2c1
IC50 [22]: 0.401 µM (active)

O=c1c2sccc2n(Cc2cc(=O)n3ccccc3n2)c(=O)n1-c1ccccc1
IC50 [1]: 14 µM (active)

Nc1c(C(=O)Nc2ccccc2)sc2nc(-c3ccco3)ccc12
IC50 [14]: 6.43 µM (active)
IC50 [15]: > 111 µM (not active)

CC(C)(C)C(=O)OCc1nc(-c2ccc(O)c(O)c2)cs1
CC50 [16]: 27.8 µM (active)

Cc1nnc(NS(=O)(=O)c2ccc(N=Nc3ccc(N)nc3N)cc2)s1
AC50 [23]: 3.23 µM (active)

O=C(NC(=S)Nc1ccc(Br)cn1)c1cccs1
EC50 [24]: > 67.5 µM (inactive)
EC50 [25]: > 67.5 µM (inactive)

O=C(NCc1ccc(F)cc1)C(Cc1ccccc1)NS(=O)(=O)c1cccs1 (configuration not stated)
IC50 [19]: > 109 µM (inactive)
IC50 [20]: > 83.3 µM (inactive)

c1coc(-c2nn3c(Cn4nnc5ccccc54)nnc3s2)c1
IC50 [26]: > 66 µM (inactive)
IC50 [1]: 8.25 µM (active)
IC50 [27]: > 66 µM (inactive)

C(=C\c1ccc([C@H]2[C@H]3CNC[C@@H]2N3Cc2ccccn2)cc1)/c1ccccc1
AC50 [23]: 41.9 µM (active)

CCOC(=O)c1ccc(-c2csc(NC(=O)CN3CCC(C)CC3)n2)cc1
IC50 [14]: 5.32 µM (active)
IC50 [15]: > 111 µM (not active)
